This note sets out measurements from ChEMBL document CHEMBL1157172, “Rational design, synthesis, and in vivo evaluation of the antileukemic activity of six new alkylating steroidal esters” (Bioorg Med Chem, 2008).

Calls of active or inactive are those of the source. The rule behind the calls is not given here.

Series [1] has as its system P388. The series can be described thus: Increase in median life span in BDF1 mouse bearing P388 cells at 30 mg/kg/day, ip relative to corn oil. The class given is functional. The conditions noted are these: route intraperitoneal.
In series [2] the test system is P388. The series is described as follows: Antitumor activity in BDF1 mouse bearing P388 cells assessed as mean survival days at 30 mg/kg/day, ip. The class given is functional. As to conditions: route intraperitoneal.
Series [3] relates to L1210. The series is described as follows: Antitumor activity in BDF1 mouse L1210 cells assessed as mean survival days at 30 mg/kg/day, ip. The series is classed as functional. As to conditions: route intraperitoneal.
The subject of series [4] is L1210. The series is described as follows: Antitumor activity in BDF1 mouse L1210 cells assessed as number of cured mouse at 30 mg/kg/day, ip after 90 days. The series is classed as functional, organism-based.
For series [5], the system named is Mus musculus. The series can be described thus: (§1) Acute toxicity in ip dosed BALB/c mouse after 30 days. The series is classed as organism-based. The conditions noted are these: in vivo, 720 h.
Series [6] is described as follows: as §1. The conditions noted are these: BALB/c, in vivo. The class given is organism-based.
Series [7] deals with L1210. The series can be described thus: Increase in median life span in BDF1 mouse L1210 cells at 30 mg/kg/day, ip relative to corn oil. The conditions noted are these: route intraperitoneal. The class given is functional.
Series [8] relates to L1210. The series is described as follows: Antitumor activity in BDF1 mouse L1210 cells assessed as mean survival days at 200 mg/kg/day, ip. The class given is functional. The conditions noted are these: route intraperitoneal.
Series [9] deals with P388. The series can be described thus: Increase in median life span in BDF1 mouse bearing P388 cells at 200 mg/kg/day, ip relative to corn oil. The series is classed as functional. As to conditions: route intraperitoneal.
Series [10] relates to P388. The series is described as follows: Antitumor activity in BDF1 mouse bearing P388 cells assessed as number of cured mouse at 200 mg/kg/day, ip after 90 days. The series is classed as functional, organism-based.
The subject of series [11] is L1210. The series can be described thus: Increase in median life span in BDF1 mouse L1210 cells at 200 mg/kg/day, ip relative to corn oil. The series is classed as functional. As to conditions: route intraperitoneal.
Series [12] relates to P388. The series can be described thus: Antitumor activity in BDF1 mouse bearing P388 cells assessed as mean survival days at 200 mg/kg/day, ip. The conditions noted are these: route intraperitoneal. The series is classed as functional.
Series [13] relates to L1210. The series can be described thus: Antitumor activity in BDF1 mouse L1210 cells assessed as number of cured mouse at 200 mg/kg/day, ip after 90 days. The class given is functional, organism-based.
Series [14] has as its system P388. The series can be described thus: Antitumor activity in BDF1 mouse bearing P388 cells assessed as number of cured mouse at 7.5 mg/kg/day, ip after 90 days. The series is classed as functional, organism-based.
Series [15] deals with L1210. The series is described as follows: Increase in median life span in BDF1 mouse L1210 cells at 7.5 mg/kg/day, ip relative to corn oil. As to conditions: route intraperitoneal. The class given is functional.
Series [16] relates to P388. The series is described as follows: Antitumor activity in BDF1 mouse bearing P388 cells assessed as mean survival days at 7.5 mg/kg/day, ip. The series is classed as functional. As to conditions: route intraperitoneal.
Series [17] has as its system L1210. The series can be described thus: Antitumor activity in BDF1 mouse L1210 cells assessed as mean survival days at 7.5 mg/kg/day, ip. The series is classed as functional. The conditions noted are these: route intraperitoneal.
For series [18], the system named is P388. The series is described as follows: Increase in median life span in BDF1 mouse bearing P388 cells at 7.5 mg/kg/day, ip relative to corn oil. The series is classed as functional. As to conditions: route intraperitoneal.
Series [19] deals with L1210. The series can be described thus: Antitumor activity in BDF1 mouse L1210 cells assessed as number of cured mouse at 7.5 mg/kg/day, ip after 90 days. The class given is functional, organism-based.
The subject of series [20] is L1210. The series can be described thus: Antitumor activity in BDF1 mouse L1210 cells assessed as number of cured mouse at 12.5 mg/kg/day, ip after 90 days. The class given is functional, organism-based.
The subject of series [21] is P388. The series is described as follows: Antitumor activity in BDF1 mouse bearing P388 cells assessed as mean survival days at 12.5 mg/kg/day, ip. The class given is functional. The conditions noted are these: route intraperitoneal.
Series [22] has as its system P388. The series is described as follows: Antitumor activity in BDF1 mouse bearing P388 cells assessed as number of cured mouse at 12.5 mg/kg/day, ip after 90 days. The series is classed as functional, organism-based.
For series [23], the system named is P388. The series can be described thus: Increase in median life span in BDF1 mouse bearing P388 cells at 12.5 mg/kg/day, ip relative to corn oil. The class given is functional. The conditions noted are these: route intraperitoneal.
Series [24] deals with L1210. The series is described as follows: Antitumor activity in BDF1 mouse L1210 cells assessed as mean survival days at 12.5 mg/kg/day, ip. The series is classed as functional. The conditions noted are these: route intraperitoneal.
In series [25] the test system is L1210. The series is described as follows: Increase in median life span in BDF1 mouse L1210 cells at 12.5 mg/kg/day, ip relative to corn oil. As to conditions: route intraperitoneal. The class given is functional.
For series [26], the system named is P388. The series can be described thus: Antitumor activity in BDF1 mouse bearing P388 cells assessed as number of cured mouse at 22 mg/kg/day, ip after 90 days. The class given is functional, organism-based.
For series [27], the system named is L1210. The series is described as follows: Antitumor activity in BDF1 mouse L1210 cells assessed as mean survival days at 22 mg/kg/day, ip. The class given is functional. As to conditions: route intraperitoneal.
Series [28] deals with L1210. The series is described as follows: Increase in median life span in BDF1 mouse L1210 cells at 22 mg/kg/day, ip relative to corn oil. The class given is functional. The conditions noted are these: route intraperitoneal.
For series [29], the system named is P388. The series is described as follows: Increase in median life span in BDF1 mouse bearing P388 cells at 22 mg/kg/day, ip relative to corn oil. As to conditions: route intraperitoneal. The class given is functional.
Series [30] concerns P388. The series can be described thus: Antitumor activity in BDF1 mouse bearing P388 cells assessed as mean survival days at 22 mg/kg/day, ip. The series is classed as functional. The conditions noted are these: route intraperitoneal.
Series [31] relates to L1210. The series can be described thus: Antitumor activity in BDF1 mouse L1210 cells assessed as number of cured mouse at 22 mg/kg/day, ip after 90 days. The class given is functional, organism-based.
For series [32], the system named is P388. The series is described as follows: Antitumor activity in BDF1 mouse bearing P388 cells assessed as number of cured mouse at 50 mg/kg/day, ip after 90 days. The series is classed as functional, organism-based.
Series [33] deals with L1210. The series can be described thus: Antitumor activity in BDF1 mouse L1210 cells assessed as mean survival days at 50 mg/kg/day, ip. The series is classed as functional. As to conditions: route intraperitoneal.
Series [34] concerns P388. The series can be described thus: Increase in median life span in BDF1 mouse bearing P388 cells at 50 mg/kg/day, ip relative to corn oil. The series is classed as functional. As to conditions: route intraperitoneal.
Series [35] deals with L1210. The series can be described thus: Antitumor activity in BDF1 mouse L1210 cells assessed as number of cured mouse at 50 mg/kg/day, ip after 90 days. The series is classed as functional, organism-based.
Series [36] deals with P388. The series is described as follows: Antitumor activity in BDF1 mouse bearing P388 cells assessed as mean survival days at 50 mg/kg/day, ip. The series is classed as functional. The conditions noted are these: route intraperitoneal.
The subject of series [37] is L1210. The series can be described thus: Increase in median life span in BDF1 mouse L1210 cells at 50 mg/kg/day, ip relative to corn oil. The class given is functional. As to conditions: route intraperitoneal.
The subject of series [38] is L1210. The series is described as follows: Increase in median life span in BDF1 mouse L1210 cells at 120 mg/kg/day, ip relative to corn oil. The conditions noted are these: route intraperitoneal. The series is classed as functional.
Series [39] has as its system P388. The series can be described thus: Increase in median life span in BDF1 mouse bearing P388 cells at 120 mg/kg/day, ip relative to corn oil. The class given is functional. As to conditions: route intraperitoneal.
Series [40] relates to P388. The series can be described thus: Antitumor activity in BDF1 mouse bearing P388 cells assessed as mean survival days at 120 mg/kg/day, ip. The series is classed as functional. The conditions noted are these: route intraperitoneal.
Series [41] concerns L1210. The series can be described thus: Antitumor activity in BDF1 mouse L1210 cells assessed as number of cured mouse at 120 mg/kg/day, ip after 90 days. The class given is functional, organism-based.
Series [42] relates to L1210. The series is described as follows: Antitumor activity in BDF1 mouse L1210 cells assessed as mean survival days at 120 mg/kg/day, ip. The class given is functional. As to conditions: route intraperitoneal.

On to `CC(=O)N[C@H]1CC[C@H]2[C@@H]3NC(=O)C=C4C[C@@H](OC(=O)Cc5ccc(N(CCCl)CCCl)cc5)CC[C@]4(C)[C@H]3CC[C@]12C`, for which the results for the Activity in [1] and in series [7] were 221% and 144.4%, respectively. For the same molecule, the Survival was found to be 21 days in series [2] and 15.6 days in series [3]. In series [4], the outcome was inactive. Further, the LD10 in [5] is 60 mg/kg. The LD50 (as a rule, the dose expected to kill half of the subjects tested) at 720 h in series [6] turned out to be 80 mg/kg.

As for `CC(=O)N[C@H]1CC[C@H]2[C@@H]3C(=O)C=C4C[C@@H](OC(=O)c5ccc(C)c(N(CCCl)CCCl)c5)CC[C@]4(C)[C@H]3CC[C@]12C`, the Survival was 13.7 days in series [8] and 14.6 days in series [12]. For the same molecule, the Activity in series [9] is given as 153%; in series [11], 127%. In addition, the LD10 in series [5] came to 400 mg/kg. For the same molecule, the LD50 at 720 h in series [6] was determined as 600 mg/kg. Further, the outcome in series [10] and in [13] was inactive.

For `O=C(O)CCCc1ccc(N(CCCl)CCCl)cc1` [CHLORAMBUCIL], the outcome in series [14] and in series [19] was inactive. In addition, the figures for the Activity in series [15] and in series [18] were 114% and 155%, respectively. Besides, the Survival in series [16] is 14.7 days; in series [17] it was 12.3 days. The molecule also returned an LD10 in [5] of 15 mg/kg. In series [6], this molecule gave an LD50 at 720 h of 24 mg/kg.

`CC(=O)N[C@H]1CC[C@H]2[C@@H]3C(=O)C=C4C[C@@H](OC(=O)Cc5ccc(N(CCCl)CCCl)cc5)CC[C@]4(C)[C@H]3CC[C@]12C`: the outcome in series [20] and in [22] was inactive. The Survival came out at 29.8 days in series [21] and 26.3 days in series [24]. Also, the LD10 in series [5] came to 25 mg/kg. For the same molecule, the LD50 at 720 h in [6] was determined as 75 mg/kg. The Activity in series [23] came out at 314%; in series [25], 243%.

On to `CC(=O)N[C@H]1CC[C@H]2[C@@H]3C(=O)C=C4C[C@@H](OC(=O)CCCc5ccc(N(CCCl)CCCl)cc5)CC[C@]4(C)[C@H]3CC[C@]12C`, for which the result in series [26] and in series [31] was inactive. For the same molecule, the LD10 in series [5] was 44 mg/kg. Further, the LD50 at 720 h in series [6] amounted to 87 mg/kg. The figures for the Survival in series [27] and in [30] were 16.2 days and 18.8 days, respectively. For the same molecule, the Activity in [28] is given as 150%; in [29], 198%.

For the molecule `CC(=O)N[C@H]1CC[C@H]2[C@@H]3NC(=O)C=C4C[C@@H](OC(=O)CCCc5ccc(N(CCCl)CCCl)cc5)CC[C@]4(C)[C@H]3CC[C@]12C`, the outcome in series [32] and in series [35] was inactive. Besides, the Survival in series [33] is 15.2 days; in series [36] it was 22 days. Also, the LD10 in series [5] came out at 100 mg/kg. Moreover, the LD50 at 720 h in series [6] came out at 180 mg/kg. For the same molecule, the Activity is listed as 231% in series [34] and 140.7% in series [37].

In the case of `CC(=O)N[C@H]1CC[C@H]2[C@@H]3NC(=O)C=C4C[C@@H](OC(=O)c5ccc(C)c(N(CCCl)CCCl)c5)CC[C@]4(C)[C@H]3CC[C@]12C`, the LD10 in series [5] came to 240 mg/kg. For the same molecule, the LD50 at 720 h in series [6] was 280 mg/kg. For the same molecule, the Activity in series [38] turned out to be 189.8%; in series [39], 300%. For the same molecule, the Survival in series [40] stood at 28.5 days; in [42], 20.5 days. Besides, in [41], the outcome was inactive.
